Measured values as given in patent US8709451B2, “Stable nanoemulsions for ultrasound-mediated drug delivery and imaging” (University of Utah Research Foundation, priority 2010, dated 2014).

Assays:
[1] = system: A2780 ovarian cancer cells; experiment: Confocal imaging of DOX uptake by substrate-attached cells without ultrasound; format: cell-based; conditions: no ultrasound, 20 μg/mL DOX
Method: A2780 cells were grown on cover glass in an 8 well cover glass chamber (LabTek chambered cover glass, NUNC, Rochester, N.Y.), and incubated with either, DOX dissolved in PBS, DOX-loaded 1.4% PEG-PCL micelle solution, or DOX-loaded 1% PFCE or PFP emulsions. Hoechst 33258 (Sigma Aldrich, St Louis, Mo.) stain was used to identify the nuclei of the A2780 cancer cells. Confocal fluorescent images of the cells were obtained using inverted confocal microscope (Olympus IX81, Olympus America Inc., Center Valley, Pa.); and the images were processed using ImageJ software. Emission filters of 570 nm for DOX and 480 nm for Hoechst were selected for imaging. In some experiments, DAPI was added to stain the cells before incubation with DOX and ultrasound exposure as discussed below.
A2780 drug sensitive cells, grown on chambered cover slip were incubated with different DOX formulations and confocal fluorescent images were obtained (FIGS. 14 and 15). Different image slices of the cell layer attached to the cover slip were recorded at an incremental step of 0.5 μm depth from the bottom to top of the cell layer (z-direction). The images recorded were stacked in z-direction and processed using ImageJ. The brightness and contrast ratios of magnified insets of the images were modified to reveal the intracellular distribution of fluorescence. […]
DOX fluorescence inside the cells was characterized by the R/G ratio where R is the intensity of red color and G is that of green color at the same region of interest (ROI) inside the cells. This ratio is used because DOX absorbs green light that ignites its red fluorescence. The R and G values and ratios were measured using ImageJ software.
The red/green (R/G) ratio of the fluorescence inside the cells and R/G ratio of the background fluorescence from the cover slip were measured. […] The cells incubated with either PFCE or PFP droplets have lower fluorescence (R/G ratios of 0.31 and 0.14 for PFCE and PFP respectively) than the cells incubated with DOX in micellar solution (R/G ratio of 0.63). […]

[2] = system: A2780 ovarian cancer cells; experiment: Sonication of suspended cells with DOX formulations, confocal imaging; format: cell-based; conditions: 3-MHz CW ultrasound, DOX 10 μg/mL
Method: A2780 cells were lifted off the culture T-flasks with 1× Trypsin (0.25% trypsin, 0.02% EDTA, Sigma Aldrich, St Louis, Mo.). The cells were resuspended in media. This suspension was mixed 2:1 volume ratio with DOX-containing formulations with typical cell concentrations of 5.7×10^6 cells/mL. Two types of DOX solutions in PBS were used: hydrophilic hydrochloride salt DOX-HCl (20 μg/mL) or deprotonated DOX; the concentration in PBS was 20 μg/mL for either molecule. DOX formulations included deprotonated DOX incorporated in 1.4% PEG-PCL micellar solution or DOX incorporated in 1% PFCE or PFP PEG-PCL emulsion; DOX concentration was the same as in PBS solutions (20 μg/mL). […] Pressure was measured using ONDA needle hydrophone (Onda HNR-0500) (calibrated in October, 2009) placed in front of the probe with a distance of 0.5 cm from the probe. […] After ultrasound treatments, a droplet of the cell suspension was placed on a glass slide, and the fluorescence inside the cells was observed and quantified using confocal microscope as described above. […]

COc1cccc2c1C(=O)c1c(O)c3c(c(O)c1C2=O)C[C@@](O)(C(=O)CO)C[C@@H]3O[C@H]1C[C@H](N)[C@H](O)[C@H](C)O1 [deprotonated DOX, doxorubicin]
DOX penetration into cell nuclei [1]: did not get into the nuclei | cellular uptake of DOX [1]: low cellular uptake | effect of ultrasound on DOX penetration into cell nuclei [2]: marginal

COc1cccc2c1C(=O)c1c(O)c3c(c(O)c1C2=O)C[C@@](O)(C(=O)CO)C[C@@H]3O[C@H]1C[C@H](N)[C@H](O)[C@H](C)O1.Cl [hydrophilic DOX, doxorubicin]
DOX penetration into cell nuclei [1]: red fluorescence in the nuclei
